Test results as given in patent US20090104145A1, “Mixtures of Anthranilamide Invertebrate Pest Control Agents” (priority 2004, published 2009).
Like-named read-outs stand apart in the source and are kept apart here.

Columns and labels:
Assay in all cases: whole plant or invertebrate
Assay type in all cases: in vivo
[1] = tested on: silverleaf whitefly (Bemisia argentifolii Bellows and Perring); settings: Bemisia argentifolii, in Gossypium hirsutum, read-out: % Mortality (observed)
Experimental: (§1) The pest control protection afforded by the mixtures or compositions is not limited, however, to these species. The analysis of synergism or antagonism between the mixtures or compositions was determined using Colby's equation. The average % mortality data for the test compounds alone were inserted into the Colby's equation. If the observed average % mortality was higher than “p”, the expected % mortality, the mixture or composition had synergistic effects. If the observed average % mortality was equal to or lower than the expected mortality, the mixture or composition either had no synergistic effect or an antagonistic effect. In these tests, Compound 1 is the compound of Formula 1.
For evaluating control of silverleaf whitefly (Bemisia argentifolii Bellows and Perring) through contact and/or systemic means, each test unit consisted of a small open container with a 12- to 14-day-old cotton plant inside. This was pre-infested by placing test units into cages infested with adult whiteflies so that oviposition on the cotton leaves could occur. The adults were removed from the plants with an air-blast nozzle, and the test units were capped. The test units were then stored 2 to 3 days before spraying.
(§2) Test compounds were formulated using a solution containing 10% acetone, 90% water and 300 ppm X-77® Spreader Lo-Foam Formula non-ionic surfactant containing alkylarylpolyoxyethylene, free fatty acids, glycols and isopropanol (Loveland Industries, Inc.) to provide the desired concentration in ppm. Formulated test solutions were then applied in 1 mL volumes through a SUJ2 atomizer nozzle with ⅛ JJ custom body (Spraying Systems Co.) positioned 1.27 cm (0.5 inches) above the top of each test unit.
The results for all experimental compositions in this test were replicated three times. After spraying of the formulated test composition, each test unit was allowed to dry for 1 hour and the cap removed. The test units were held for 13 days in a growth chamber at 28° C. and 50-70% relative humidity.

[2] = tested on: western flower thrip (Frankliniella occidentalis Pergande); settings: Frankliniella occidentalis
Experimental: as §1, §2
For evaluating control of the western flower thrip (Frankliniella occidentalis Pergande) through contact and/or systemic means, each test unit consisted of a small open container with a 5- to 7-day-old bean (var. Soleil) plant inside.
Test solutions were formulated and sprayed with 3 replications as described for Test A. After spraying, the test units were allowed to dry for 1 hour, 22 to 27 adult thrips were added to each unit and then a black, screened cap was placed on top. The test units were held for 7 days at 25° C. and 45-55% relative humidity.

[3] = tested on: potato leafhopper (Empoasca fabae Harris); settings: Empoasca fabae, Imidacloprid 0 ppm, read-out: % Mortality (observed)
Experimental: as §1, §2
For evaluating control of potato leafhopper (Empoasca fabae Harris) through contact and/or systemic means, each test unit consisted of a small open container with a 5- to 6-day-old Longio bean plant (primary leaves emerged) inside. White sand was added to the top of the soil, and one of the primary leaves was excised prior to application. Test compounds were formulated and sprayed with 3 replications as described for Test A. After spraying, the test units were allowed to dry for 1 hour before they were infested with 5 potato leafhoppers (18- to 21-day-old adults). A black, screened cap was placed on the top of each container. The test units were held for 6 days in a growth chamber at 19-21° C. and 50-70% relative humidity.

[4] = tested on: corn planthopper (Pereginus maidis); settings: read-out: % mortality (obs)
Experimental: as §1, §2
For evaluating control of corn planthopper (Pereginus maidis) through contact and/or systemic means, each test unit consisted of a small open cylindrical container with a 3- to 4-day-old corn (maize) plant (spike) inside. White sand was added to the top of the soil prior to application. Test compounds were formulated and sprayed with 3 replications as described for Test A. After spraying, the test units were allowed to dry for 1 hour before they were post-infested with 10 to 20 corn planthoppers (18- to 20-day-old nymphs) by sprinkling them onto the sand with a salt shaker. A black, screened cap was placed on the top of each container. The test units were held for 6 days in a growth chamber at 19-21° C. and 50-70% relative humidity.

[5] = tested on: cotton melon aphid (Aphis gossypii Glover); settings: Aphis gossypii
Experimental: as §1, §2
(§3) For evaluating control of cotton melon aphid (Aphis gossypii Glover) through contact and/or systemic means, each test unit consisted of a small open container with a 6- to 7-day-old cotton plant inside. This was pre-infested by placing on a leaf of the test plant 30 to 40 aphids on a piece of leaf excised from a culture plant (cut-leaf method). The larvae moved onto the test plant as the leaf piece desiccated. After pre-infestation, the soil of the test unit was covered with a layer of sand.
(§4) Test compounds were formulated and sprayed as described for Test A. The applications were replicated three times. After spraying of the formulated test compounds, each test unit was allowed to dry for 1 hour and then a black, screened cap was placed on top. The test units were held for 6 days in a growth chamber at 19-21° C. and 50-70% relative humidity.

[6] = tested on: green peach aphid (Myzus persicae Sulzer); settings: Myzus persicae, in Raphanus sativus
Experimental: as §1, §2
as §3, with “green peach” for “cotton melon”, “(Myzus persicae Sulzer)” for “(Aphis gossypii Glover)”, “12-” for “6-”, “15-day-old radish” for “7-day-old cotton”
as §4, with “described in” for “described for”, “Test A,” for “Test A. The applications were”, “test compound,” for “test compounds,”

[7] = rate 0.5 ppm, read-out: % mortality (obs)
[8] = rate 2 ppm, read-out: % mortality (obs)

CNC(=O)c1cc(C#N)cc(C)c1NC(=O)c1cc(Br)nn1-c1ncccc1Cl [Compound 1, 3-bromo-N-[4-cyano-2-methyl-6-[(methylamino)carbonyl]phenyl]-1-(3-chloro-2-pyridinyl)-1H-pyrazole-5-carboxamide] showed a mortality at 7 ppm ([1]; Compound 1 7 ppm alone) of 58%, a mortality at 9 ppm ([1]; Compound 1 9 ppm alone) of 69% and a mortality at 12 ppm ([1]; Compound 1 12 ppm alone) of 72%. It also gave a mortality at 0.3 ppm ([2]; Compound 1 0.3 ppm alone, read-out: % Mortality (observed)) of 25%, a mortality at […] ([2]; Compound 1 1.3 ppm alone, read-out: % Mortality (observed)) of 55% and a mortality at 6 ppm ([2]; Compound 1 6 ppm alone, read-out: % Mortality (observed)) of 72%. The mortality at 0.3 ppm ([2]; rate 0.3 ppm, read-out: % mortality (obs)) was 42%, the mortality at […] ([2]; rate 1.5 ppm, read-out: % mortality (obs)) was 50% and the mortality at 6 ppm ([2]; rate 6 ppm, read-out: % mortality (obs)) was 61%. It also gave a mortality at 0.3 ppm ([3]; Compound 1 0.3 ppm) of 0%, a mortality at 2.3 ppm ([3]; Compound 1 2.3 ppm) of 0% and a mortality at 18 ppm ([3]; Compound 1 18 ppm) of 100%. For the same molecule, the mortality at 0.3 ppm ([4]; rate 0.3 ppm) was 15%, the mortality at 3 ppm ([4]; rate 3 ppm) was 26% and the mortality at 30 ppm ([4]; rate 30 ppm) was 90%. It also gave a mortality at 0.08 ppm ([5]; Compound 1 0.08 ppm, read-out: % Mortality (observed)) of 15%, a mortality at 0.4 ppm ([5]; Compound 1 0.4 ppm, read-out: % Mortality (observed)) of 18% and a mortality at 1.8 ppm ([5]; Compound 1 1.8 ppm, read-out: % Mortality (observed)) of 66%. It also gave a mortality at 0.1 ppm ([5]; rate 0.1 ppm, read-out: % mortality (obs)) of 22%, a mortality at 0.5 ppm [5, 7] of 37% and a mortality at 2 ppm [5, 8] of 76%. It also gave a mortality at 0.5 ppm ([6]; 0.5 ppm, read-out: % Mortality (observed)) of 14%, a mortality at 1.1 ppm ([6]; 1.1 ppm, read-out: % Mortality (observed)) of 22% and a mortality at 2.1 ppm ([6]; 2.1 ppm, read-out: % Mortality (observed)) of 49%. The mortality at 0.5 ppm [6, 7] was 21%, the mortality at 1 ppm ([6]; rate 1 ppm, read-out: % mortality (obs)) was 35% and the mortality at 2 ppm [6, 8] was 71%.
